Patent publication US10696615B2, “Prenylated hydroxystilbenes” (The University of Sydney, priority 2011, dated 2020)

Columns and labels:
[1] = test system: NCI-H460; assay: NCI in vitro cancer screen, Non-Small Cell Lung Cancer; assay type: cell-based, human; settings: NCI-H460, Non-Small Cell Lung Cancer
[2] = test system: OVCAR-4; assay: NCI in vitro cancer screen, Ovarian Cancer; assay type: cell-based, human; settings: OVCAR-4, Ovarian Cancer
[3] = test system: HCT-15; assay: NCI in vitro cancer screen, Colon Cancer; assay type: cell-based, human; settings: HCT-15, Colon Cancer
[4] = test system: M14; assay: NCI in vitro cancer screen, Melanoma; assay type: cell-based, human; settings: M14, Melanoma
[5] = test system: HT29; assay: NCI in vitro cancer screen, Colon Cancer; assay type: cell-based, human; settings: HT29, Colon Cancer
[6] = test system: UO-31; assay: NCI in vitro cancer screen, Renal Cancer; assay type: cell-based, human; settings: UO-31, Renal Cancer
[7] = test system: MDA-MB-231 (MDA-MB-231/ATCC); assay: NCI in vitro cancer screen, Breast Cancer; assay type: cell-based, human; settings: MDA-MB-231/ATCC, Breast Cancer
[8] = test system: MCF7; assay: NCI in vitro cancer screen, Breast Cancer; assay type: cell-based, human; settings: MCF7, Breast Cancer
[9] = test system: NCI-H23; assay: NCI in vitro cancer screen, Non-Small Cell Lung Cancer; assay type: cell-based, human; settings: NCI-H23, Non-Small Cell Lung Cancer
[10] = test system: HCC-2998; assay: NCI in vitro cancer screen, Colon Cancer; assay type: cell-based, human; settings: HCC-2998, Colon Cancer
[11] = test system: SNB-19; assay: NCI in vitro cancer screen, CNS Cancer; assay type: cell-based, human; settings: SNB-19, CNS Cancer
[12] = test system: CAKI-1; assay: NCI in vitro cancer screen, Renal Cancer; assay type: cell-based, human; settings: CAKI-1, Renal Cancer
[13] = test system: SR; assay: NCI in vitro cancer screen, Leukemia; assay type: cell-based, human; settings: Leukemia
[14] = test system: SK-MEL-28; assay: NCI in vitro cancer screen, Melanoma; assay type: cell-based, human; settings: SK-MEL-28, Melanoma
[15] = test system: DU-145; assay: NCI in vitro cancer screen, Prostate Cancer; assay type: cell-based, human; settings: DU-145, Prostate Cancer
[16] = test system: MDA-MB-468; assay: NCI in vitro cancer screen, Breast Cancer; assay type: cell-based, human; settings: MDA-MB-468, Breast Cancer
[17] = test system: COLO 205; assay: NCI in vitro cancer screen, Colon Cancer; assay type: cell-based, human; settings: COLO 205, Colon Cancer
[18] = test system: MALME-3M; assay: NCI in vitro cancer screen, Melanoma; assay type: cell-based, human; settings: MALME-3M, Melanoma
[19] = test system: EKVX; assay: NCI in vitro cancer screen, Non-Small Cell Lung Cancer; assay type: cell-based, human; settings: Non-Small Cell Lung Cancer
[20] = test system: U251; assay: NCI in vitro cancer screen, CNS Cancer; assay type: cell-based, human; settings: U251, CNS Cancer
[21] = test system: NCI-H322M; assay: NCI in vitro cancer screen, Non-Small Cell Lung Cancer; assay type: cell-based, human; settings: Non-Small Cell Lung Cancer
[22] = test system: ADR-RES (NCI/ADR-RES); assay: NCI in vitro cancer screen, Ovarian Cancer; assay type: cell-based, human; settings: NCI/ADR-RES, Ovarian Cancer
[23] = test system: HCT-116; assay: NCI in vitro cancer screen, Colon Cancer; assay type: cell-based, human; settings: HCT-116, Colon Cancer
[24] = test system: SK-MEL-2; assay: NCI in vitro cancer screen, Melanoma; assay type: cell-based, human; settings: SK-MEL-2, Melanoma
[25] = test system: UACC-257; assay: NCI in vitro cancer screen, Melanoma; assay type: cell-based, human; settings: UACC-257, Melanoma
[26] = test system: ACHN; assay: NCI in vitro cancer screen, Renal Cancer; assay type: cell-based, human; settings: Renal Cancer
[27] = test system: human tumor cell lines; assay: NCI in vitro cancer screen, whole panel (summary statements); assay type: cell-based; settings: result in words
[28] = test system: RPMI-8226; assay: NCI in vitro cancer screen, Leukemia; assay type: cell-based, human; settings: RPMI-8226, Leukemia
[29] = Homo sapiens, read-out: LC50 (the source's name)

SMILES: CC(C)=CCOc1cc(O)cc(/C=C/c2ccc(O)c(O)c2)c1CC=C(C)C [USYDS14, (E)-2-(3-methyl-2-buten-1-yl)-3-(3-methyl-2-butenyloxy)-3′,4′,5-trihydroxystilbene]
- GI50 ([1]; Homo sapiens): 3.87 µM
- CC50 [1, 29]: 51.2 µM
- TGI [1]: 14.9 µM
- GI50 ([2]; Homo sapiens): 2980 nM
- CC50 [2, 29]: 38.6 µM
- TGI [2]: 13.6 µM
- TGI [3]: 10.4 µM
- GI50 ([3]; Homo sapiens): 2060 nM
- CC50 [3, 29]: 43.3 µM
- GI50 ([4]; Homo sapiens): 2950 nM
- CC50 [4, 29]: 50 µM
- TGI [4]: 13.6 µM
- TGI [5]: 29.1 µM
- GI50 ([5]; Homo sapiens, HT-29): 14 µM
- CC50 ([5]; Homo sapiens, HT-29, read-out: LC50 (the source's name)): 60.9 µM
- GI50 ([6]; Homo sapiens): 3.71 µM
- CC50 [6, 29]: 46.3 µM
- TGI [6]: 17.9 µM
- GI50 ([7]; Homo sapiens): 3.15 µM
- CC50 [7, 29]: 45.3 µM
- TGI [7]: 14.3 µM
- GI50 ([8]; Homo sapiens): 2740 nM
- CC50 [8, 29]: 41.9 µM
- TGI [8]: 11.8 µM
- GI50 ([9]; Homo sapiens): 2920 nM
- LC50 ([9]; Homo sapiens): 57.6 µM
- TGI [9]: 17.3 µM
- TGI [10]: 10.6 µM
- GI50 ([10]; Homo sapiens): 2900 nM
- CC50 [10, 29]: 40.7 µM
- GI50 ([11]; Homo sapiens): 5.01 µM
- CC50 [11, 29]: 52.2 µM
- TGI [11]: 20.1 µM
- TGI [12]: 17.5 µM
- GI50 ([12]; Homo sapiens): 3.59 µM
- CC50 [12, 29]: 45.4 µM
- GI50 ([13]; Homo sapiens): 670 nM
- CC50 [13, 29]: > 100 µM
- TGI [13]: 24.6 µM
- GI50 ([14]; Homo sapiens): 3.05 µM
- LC50 ([14]; Homo sapiens): 41.6 µM
- TGI [14]: 16.4 µM
- TGI [15]: 21.1 µM
- GI50 ([15]; Homo sapiens): 8.2 µM
- CC50 [15, 29]: 47.5 µM
- GI50 ([16]; Homo sapiens): 1420 nM
- CC50 [16, 29]: 16.4 µM
- TGI [16]: 4.12 µM
- TGI [17]: 28.5 µM
- GI50 ([17]; Homo sapiens): 14.6 µM
- CC50 [17, 29]: 55.7 µM
- GI50 ([18]; Homo sapiens): 3.14 µM
- CC50 [18, 29]: 54.8 µM
- TGI [18]: 21.8 µM
- GI50 ([19]; Homo sapiens): 6.45 µM
- CC50 [19, 29]: 51.7 µM
- TGI [19]: 21.2 µM
- GI50 ([20]; Homo sapiens, U-251): 3.09 µM
- CC50 ([20]; Homo sapiens, U-251, read-out: LC50 (the source's name)): 39.4 µM
- TGI [20]: 12.7 µM
- GI50 ([21]; Homo sapiens): 12.5 µM
- LC50 (50% lethal concentration) ([21]; Homo sapiens): 52.8 µM
- TGI [21]: 25.7 µM
- GI50 ([22]; Homo sapiens): 780 nM
- CC50 [22, 29]: 49.3 µM
- TGI [22]: 11.4 µM
- TGI [23]: 16 µM
- GI50 ([23]; Homo sapiens): 4.2 µM
- LC50 (concentration killing 50% of cells) ([23]; Homo sapiens): 46.6 µM
- GI50 ([24]; Homo sapiens): 3.72 µM
- LC50 ([24]; Homo sapiens): 41.2 µM
- TGI [24]: 12.5 µM
- GI50 ([25]; Homo sapiens): 10.2 µM
- CC50 [25, 29]: 54 µM
- TGI [25]: 23.5 µM
- GI50 ([26]; Homo sapiens): 2980 nM
- CC50 [26, 29]: 36.5 µM
- TGI [26]: 12.5 µM
- inhibition of cancerous cell growth [27]: structure dependent inhibition of cancerous cell growth
- GI50 ([28]; Homo sapiens): 4.07 µM
- CC50 [28, 29]: > 100 µM
- TGI [28]: 24.5 µM
